Tested on: STAT1-pSer727
Assay: Anti-STAT1-pSer727 immunoprecipitation with parallel reaction monitoring mass spectrometry
Assay type: cell-based, human
Settings: versus IFN-γ (plus DMSO) alone
Method: FIGS. 3A-3F show RSK1 is activated through JAK signaling and its inhibition suppresses STAT1 phosphorylation at Ser727 in human primary macrophages in response to IFN-γ. (FIG. 3A) PBMC-derived macrophages were pre-treated with DMSO or 10 μM a pan-JAK inhibitor, pyridone-6, for two hours and then stimulated with IFN-γ for indicated time under serum starvation. Cell lysates were subjected to immunoprecipitation with normal IgG or anti-RSK1 followed by immunoblot analysis using the indicated antibodies. WCL, whole cell lysate. N=3 donors. […] (FIG. 3D) Densitometric based quantification (ImageJ Software) of STAT1-pSer727 in panel (FIG. 3C) plus three additional donors. […] (FIG. 3F) Quantification of PRM ions (MS/MS ions) of the indicated STAT1 peptide harboring a phosphorylation at Ser727 (and oxidized methionine, m), generated from the digest of panel […].
Anti-STAT1-pSer727 IPs—The STAT1 peptide with phosphorylation at Ser727 was detected on the Orbitrap Fusion Lumos. […]
Anti-STAT1-pSer727 IPs—The three most abundant fragment ions of the target peptide (LQTTDNLLPmsPEEFDEVSR (SEQ ID NO: 5)-m10-oxidation, s11-phosphorylation, 806.3575 m/z, z=3) as annotated by SEQUEST (PD2.1) were used for quantification: y12^2+, 759.79455 m/z; c12^+, 1424.64911 m/z; b8^+, 899.48327 m/z. AUC of each fragment was calculated using the Skyline software (https://skyline.gs.washington.edu). […]

Question: For `CC(C)CCN1c2nc(Nc3cc(F)c(O)c(F)c3)ncc2N(C)C(=O)C1C` (centres unmarked) [BI-D1870], which STAT1-pSer727 recovered post-immunoprecipitation is on record?
Answer: The STAT1-pSer727 recovered post-immunoprecipitation was “less”.

Question: What about the “pSer727 site-specific signal, PRM of three EThcD fragment ions” value of the same molecule?
Answer: The value was “decrease in signal”.

Source: patent publication US20210123061A1, “METHODS AND COMPOSITIONS FOR TREATING INFLAMMATORY DISEASE OR DISORDER” (THE BRIGHAM AND WOMEN'S HOSPITAL, INC., priority 2018, published 2021)
